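Cells were grown in 96-well plates and exposed to each compound for 48 hours at five concentrations; endpoints were interpolated linearly between bracketing concentrations, or set to the highest concentration if not reached. GI50 marks 50% less growth. Definition used: TGI = concentration required for complete inhibition of growth.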 Where only a bound is given, the exact number is not on record here.

Holding throughout (assay): NCI anticancer screen, dose series, 48 h
The test system of assay [1] is M14 melanoma.
Assay [2] concerns NCI-H226 lung.
In assay [3] the test system is SK-OV-3 ovarian.
Assay [4] relates to MALME-3M melanoma.
For assay [5], the system named is U251 CNS.
The test system of assay [6] is K-562 leukemia.
The subject of assay [7] is UACC-62 melanoma.
The test system of assay [8] is SF-295 CNS.
Assay [9] relates to CCRF-CEM leukemia.

Turning to `CCCCCCCCCCCCOC1C(CNC(=O)C2OC3OC(C)(C)OC3C2NC(=O)Nc2ccc(CC(=O)NC(Cc3ccccc3)C(=O)O)cc2)OC2OC(C)(C)OC21` (centres undefined), the GI50 in assay [1], in [2], in assay [3], in [4], in assay [5] and in assay [6] was over 25 µM throughout. Besides, the GI50 in assay [7] and in [8] was over 25 µM in each case. The TGI in [1], in [2], in assay [3], in assay [4], in assay [5] and in [6] was over 25 µM each time. In addition, the TGI in assay [7] and in assay [8] was over 25 µM in each case.
`OCc1c[te]c(-c2ccccc2)c1`: the TGI was over 100 µM in assay [1]; 85.1 µM in assay [2]; over 100 µM in assay [3]; over 100 µM in [4]; over 100 µM in assay [5]; over 100 µM in assay [9]. Also, the TGI in assay [6] and in [7] was over 100 µM each time.
For `COc1ccc(-n2ccnc2-c2cc(OC)c(OC)c(OC)c2)cc1`, the GI50 in assay [1] is 2.46 µM; in assay [2] it was 24 µM; in [3] it was 5.76 µM; in [4] it was 0.747 µM; in assay [5] it was 3.98 µM; in assay [9], 2.99 µM. In addition, the GI50 in assay [6] was 3.14 µM; in assay [7] it was 2.61 µM; in [8], 1.99 µM. Besides, the TGI in assay [1], in assay [2], in [3], in assay [4], in assay [5] and in assay [9] was over 100 µM in each case. The TGI in assay [6] is over 100 µM; in assay [7], 27.3 µM; in assay [8], 8.35 µM.
Consider `O=C(Nc1ccccc1)c1cc(S(=O)(=O)Nc2nc3ccccc3o2)c(SCc2ccccc2)cc1Cl`, for which the GI50 in assay [1] is 20.6 µM; in assay [2], 21.5 µM; in [3], 22.3 µM; in assay [5], 17.8 µM; in assay [9] it was 11.4 µM; in [6] it was 20.5 µM. Besides, the values for the GI50 in [7] and in assay [8] were 17.1 µM and 18.5 µM, respectively. Also, the TGI in assay [1] came to 38.6 µM; in assay [2], 50.7 µM; in assay [3], 58.7 µM; in [5] it was 35 µM; in assay [9], 28.5 µM; in assay [6], 68.7 µM. Also, the TGI in assay [7] turned out to be 31.6 µM; in assay [8] it was 33 µM.
Consider `O=S(=O)(/N=c1/scc(-c2ccccc2)n1-c1ccccc1)c1ccc(N2N=C3c4ccccc4CC3C2c2cccs2)cc1` (centres undefined), for which the GI50 in [1] is 81.5 µM; in assay [2], 78.9 µM; in [3], over 100 µM; in assay [5], 31.2 µM; in [9], 50.3 µM; in assay [7] it was 60.3 µM. The GI50 in assay [8] is 54.5 µM. For the same molecule, the TGI in assay [1], in assay [2], in assay [3], in assay [5], in [9] and in assay [6] was over 100 µM each time. Besides, the TGI in [7] and in assay [8] was over 100 µM throughout.
As for `CC(=O)OC1CC2C3CCC4C[C@@H](NC(=O)C=C(C)C)CC[C@]4(C)C3CC[C@]2(C)[C@H]1C(C)N(C)C` (some centres undefined), the GI50 in assay [1] is 1.6 µM; in [2], 3.6 µM; in assay [3], 2.79 µM; in assay [4] it was 2.04 µM; in assay [5], 1.75 µM; in assay [9] it was 1.81 µM. Moreover, the figures for the GI50 in [6], in assay [7] and in assay [8] were 0.509 µM, 2.16 µM and 2.11 µM, respectively. The TGI in assay [1] came out at 3.39 µM; in assay [2] it was 15 µM; in assay [3] it was 7.38 µM; in assay [4] it was 4.53 µM; in assay [5], 5.79 µM; in assay [9], 8.15 µM. Moreover, the TGI in [6] worked out at 2.22 µM; in assay [7], 4.45 µM; in [8], 4.75 µM.
For the molecule `c1ccc2cc(C[n+]3ccn(CCCCCCCCCCn4cc[n+](Cc5ccc6ccccc6c5)c4)c3)ccc2c1`, the GI50 in assay [1] was 2.76 µM; in assay [2], 0.918 µM; in assay [3], 1.36 µM; in assay [4], 0.313 µM; in [9], 1.22 µM; in [6] it was 0.602 µM. The GI50 in assay [7] was 0.646 µM; in assay [8], 0.554 µM. The TGI in assay [1] amounted to 15.7 µM; in assay [2], 13.6 µM; in assay [3], 6.39 µM; in assay [4], 1.48 µM; in assay [9], 2.97 µM; in assay [6], 2.97 µM. Also, the TGI in assay [7] is 3.08 µM; in assay [8], 5.44 µM.
Turning to `COc1cc(/C=C/C(=O)N2CCN(C(=O)c3cc(OC)c(OC)c(OC)c3)CC2)ccc1OCCCOc1cc2c(cc1OC)C(=O)N1CCC[C@H]1C=N2`, the GI50 in assay [1] is 0.346 µM; in assay [2], 0.286 µM; in assay [3], 0.551 µM; in [4] it was 0.175 µM; in assay [5], 0.227 µM; in assay [9], 0.0832 µM. Besides, the GI50 was 0.324 µM in assay [6] and 0.162 µM in [7]. Moreover, the TGI is 1.42 µM in assay [1]; 1.19 µM in [2]; over 71.3 µM in assay [3]; 0.319 µM in assay [4]; 6.06 µM in [5]; over 100 µM in [9]. The TGI was over 100 µM in assay [6], 0.338 µM in assay [7] and 0.875 µM in assay [8].

For the origin of these results see PubChem BioAssay (NCI).
